Test results taken from patent US8563723B2, “Arylsulfonyl pyrazoline carboxamidine derivatives as 5-HT6 antagonists” (Abbott Healthcare Products, B.V., priority 2008, dated 2013).
Like-named read-outs stand apart in the source and are kept apart here.

Columns and labels:
5-HT6 receptor [1] = target: T1, 5-HT6 receptor (Homo sapiens, UniProt P50406); assay: In vitro functional activity ((ant)agonism) on human 5-HT6 receptors, CHO-human-5HT6-Aequorin assay; assay type: cell-based; design: host or cells: CHO AequoScreen recombinant cell line (expresses mitochondrial targeted apo-Aequorin)
T1 sequence (P50406 whole entry): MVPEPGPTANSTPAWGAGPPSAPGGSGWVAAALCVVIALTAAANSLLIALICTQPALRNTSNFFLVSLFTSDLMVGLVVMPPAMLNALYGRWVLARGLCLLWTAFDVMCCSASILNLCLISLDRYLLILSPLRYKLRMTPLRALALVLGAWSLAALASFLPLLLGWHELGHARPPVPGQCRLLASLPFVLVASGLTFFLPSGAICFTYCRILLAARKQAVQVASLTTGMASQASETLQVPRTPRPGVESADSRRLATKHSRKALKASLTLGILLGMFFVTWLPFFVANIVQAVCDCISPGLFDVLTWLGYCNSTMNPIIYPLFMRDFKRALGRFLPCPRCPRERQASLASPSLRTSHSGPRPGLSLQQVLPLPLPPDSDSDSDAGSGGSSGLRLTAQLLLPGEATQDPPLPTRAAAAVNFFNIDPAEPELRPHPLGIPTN

5-HT6 receptor [2] = target: T1, 5-HT6 receptor; assay: In vitro affinity for human 5-HT6 receptors ([3H]-LSD binding, CHO cell membranes); design: host or cells: CHO/Gα16/mtAEQ/h5HT6-A1 cells; conditions: read-out: 5-HT6 pKi (converted)
in vitro [3] = conditions: rat, hepatocytes
in vitro [4] = conditions: human, hepatocytes
[5] = Sleight, 1998; cited from earlier work
5-HT6 receptor [6] = target: T1, 5-HT6 receptor; conditions: 5-HT6 receptor (Sleight, 1998); cited from earlier work
[7] = Rogers, 1999; cited from earlier work
[8] = antagonism of 10^-8 M α-methylserotonin induced luminescence, main compound table
[9] = [3H]-LSD, membranes of CHO cells with human 5-HT6, comparison table Example 6
[10] = [3H]-LSD, membranes of CHO cells with human 5-HT6, main compound table
[11] = antagonism of 10^-8 M α-methylserotonin induced luminescence, main compound table, read-out: 5-HT6 pA2 (converted)
[12] = antagonism of 10^-8 M α-methylserotonin induced luminescence, comparison table Example 6

Ki (5-HT6 receptor [2]; [9]) [nM] | Ki (5-HT6 receptor [2]; [10]) [nM] | melting point [°C] | Kb (5-HT6 receptor [1]; [11]) [nM] | SMILES | further results
6.31 | 6.31 | – | 3.16 | CCN/C(=N\S(=O)(=O)c1ccc(N)c(Cl)c1)N1CC(C)(C)C=N1 [Compound 13, 4-Amino-3-chloro-N-[(4,4-dimethyl-4,5-dihydro-pyrazol-1-yl)-ethylamino-methylene]-benzenesulfonamide] | half-life at 1 μg/ml (in vitro [3]): 22 min; half-life at 1 μg/ml (in vitro [4]): 700 min
1.58 | 1.58 | – | – | CCN/C(=N\S(=O)(=O)c1ccc(N)c(Cl)c1)N1CC2(C=N1)CCCC2 [Compound 14] | 5-HT6 pA2 (5-HT6 receptor [1]; [8]): 9.0; half-life at 1 μg/ml (in vitro [3]): 17 min; half-life at 1 μg/ml (in vitro [4]): 51 min
3.16 | 3.16 | – | 2.51 | CCN/C(=N\S(=O)(=O)c1ccc(O)cc1)N1CC(CC)C=N1 (stereo not shown) [Compound 19, N-[Ethylamino-(4-ethyl-4,5-dihydro-pyrazol-1-yl)-methylene]-4-hydroxybenzenesulfonamide] | half-life at 1 μg/ml (in vitro [3]): 19 min; half-life at 1 μg/ml (in vitro [4]): 354 min
12.6 | 12.6 | – | 5.01 | CCN/C(=N\S(=O)(=O)c1ccc(O)cc1)N1CC(C)(C)C=N1 [Compound 22] | half-life at 1 μg/ml (in vitro [3]): 33 min; half-life at 1 μg/ml (in vitro [4]): 1440 min
– | – | 140 to 142 | – | CCN/C(=N\S(=O)(=O)c1ccc(O)cc1)N1CC2(C=N1)CCCCC2 [Compound 24] | –
– | – | 158 to 160 | – | CCN/C(=N\S(=O)(=O)c1ccc(O)cc1)N1N=CCC1c1ccccc1 (stereo not shown) [Compound 25, N-[Ethylamino-(5-phenyl-4,5-dihydro-pyrazol-1-yl)-methylene]-4-hydroxybenzene-sulfonamide] | –
– | 63.1 | – | 100 | CCN/C(=N\S(=O)(=O)c1cccc(N)c1)N1CC(CC)C=N1 (stereo not shown) [Compound 29] | –
– | 251 | – | 126 | CCN/C(=N\S(=O)(=O)c1cccc(N)c1)N1CC(C)(C)C=N1 [Compound 30, 3-Amino-N-[(4,4-dimethyl-4,5-dihydro-pyrazol-1-yl)-ethylamino-methylene]-benzenesulfonamide] | –
– | – | – | – | CCN/C(=N\S(=O)(=O)c1cccc(Cl)c1)N1CC(C)(C)C=N1 [Compound 33 from WO 2008/034863, reference compound] | 5-HT6 pA2 (5-HT6 receptor [1]; [12]): 7.8; Ki (5-HT6 receptor [2]): 25.1 nM
– | 50.1 | – | 31.6 | CCN/C(=N\S(=O)(=O)c1cccc(O)c1)N1CC(C)(C)C=N1 [Compound 36, N-[(4,4-Dimethyl-4,5-dihydro-pyrazol-1-yl)-ethylamino-methylene]-3-hydroxy-benzenesulfonamide] | –
– | – | 146 to 149 | – | CCN/C(=N\S(=O)(=O)c1ccc(C(N)=O)cc1)N1CC(CC)C=N1 (stereo not shown) [Compound 43, 4-{[Ethylamino-(4-ethyl-4,5-dihydro-pyrazol-1-yl)-methylene]-sulfamoyl}-benzamide] | –
– | – | 164 to 168 | – | CCN/C(=N\S(=O)(=O)c1cccc(C(N)=O)c1)N1CC(CC)C=N1 (stereo not shown) [Compound 44, 3-{[Ethylamino-(4-ethyl-4,5-dihydro-pyrazol-1-yl)-methylene]-sulfamoyl}-benzamide] | –
5.01 | – | – | – | CCN/C(=N\S(=O)(=O)c1cccc(Cl)c1)N1CC2(C=N1)CCCC2 [Compound 49 from WO 2008/034863, reference compound] | 5-HT6 pA2 (5-HT6 receptor [1]; [12]): 8.2
– | 7.94 | 112 to 114 | – | CCN/C(=N\S(=O)(=O)c1cc(O)cc(Cl)c1)N1CC2(C=N1)CCNCC2 [Compound 52] | –
– | 5.01 | 146 to 147 | – | CCN/C(=N\S(=O)(=O)c1cc(O)cc(Cl)c1)N1CC(CC)C=N1 (stereo not shown) [Compound 53] | –
– | – | 157 to 158 | – | CCN/C(=N\S(=O)(=O)c1cc(O)cc(Cl)c1)N1CC2(C=N1)CCCC2 [Compound 54] | –
– | 7.94 | – | 2.51 | CCN/C(=N\S(=O)(=O)c1ccc2[nH]ccc2c1)N1CC(C)(C)C=N1 [Compound 57] | –
63.1 | – | – | – | CCN/C(=N\S(=O)(=O)c1ccc(OC)cc1)N1CC(CC)C=N1 (stereo not shown) [Compound 81 from WO 2008/034863, reference compound] | Kb (5-HT6 receptor [1]; antagonism of 10^-8 M α-methylserotonin induced luminescence, comparison table Example 6, read-out: 5-HT6 pA2 (converted)): 100 nM; half-life at 1 μg/ml (in vitro [3]): 16 min; half-life at 1 μg/ml (in vitro [4]): 68 min
– | – | – | – | CNc1cc(NS(=O)(=O)c2ccc(N)cc2)nc(NC)n1 [Ro 04-6790] | pharmacokinetics [5]: poor; Ki (5-HT6 receptor [6]): 50 nM
– | – | – | – | CNc1cc(NS(=O)(=O)c2ccc(N)cc2)cc(NC)n1 [Ro 63-0563] | pharmacokinetics [5]: poor; Ki (5-HT6 receptor [6]): 12 nM
– | – | – | – | COc1ccc(NS(=O)(=O)c2sc3ccc(Cl)cc3c2C)cc1N1CCNCC1 [SB-271046] | performance in the Morris water maze [7]: improved performance

SMILES | Ki (5-HT6 receptor [2]; [9]) [nM] | Ki (5-HT6 receptor [2]; [10]) [nM] | melting point [°C] | Kb (5-HT6 receptor [1]; [11]) [nM] | further results
CCN/C(=N\S(=O)(=O)c1ccc(N)cc1)N1CC(C)(C)C=N1 [Compound 3, 4-Amino-N-[(4,4-dimethyl-4,5-dihydro-pyrazol-1-yl)-ethylamino-methylene]-benzenesulfonamide] | 12.6 | 12.6 | – | – | 5-HT6 pA2 (5-HT6 receptor [1]; [8]): 7.6; half-life at 1 μg/ml (in vitro [3]): 71 min; half-life at 1 μg/ml (in vitro [4]): > 1000 min
CCN/C(=N\S(=O)(=O)c1ccc(N)cc1)N1CC2(C=N1)CCCC2 [Compound 4, 4-Amino-N-[(2,3-diaza-spiro[4.4]non-3-en-2-yl)-ethylamino-methylene]benzene-sulfonamide] | – | 10 | 141 to 142 | – | Kb (5-HT6 receptor [1]; 5-HT6 pA2, antagonism of 10^-8 M α-methylserotonin induced luminescence, main compound table): 5.01 nM
